Where “and” joins values, the source holds several entries; their conditions need not be identical. Identical values can stand only once. Results filed as inconclusive are left out.
Tested on: nude mice, HT29 intrarenal xenograft, tumor weight T/C
Assay: NCI In Vivo Anticancer Drug Screen. Data for tumor model HT29;CX-1 Human Adenocarcinoma (MER+) (intrarenal inoculation) in NU/NU Swiss (nude) mice
Conditions: endpoint: mean tumor weight change, higher = larger tumour
Summary of the method: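 Compounds were given to mice carrying transplantable tumors; a vehicle-dosed group served as control. The endpoint measured in each group was compared as a T/C quotient.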

[1] = dose: 4.0 mg/kg/injection, schedule: Q01DX010 (sc), vehicle: saline
[2] = dose: 8.0 mg/kg/injection, schedule: Q01DX010 (sc), vehicle: saline
[3] = dose: 150.0 mg/kg/injection, schedule: Q04DX004 (sc), vehicle: saline with Tween-80
[4] = dose: 600.0 mg/kg/injection, schedule: Q04DX004 (sc), vehicle: saline with Tween-80
[5] = dose: 1200.0 mg/kg/injection, schedule: Q04DX004 (sc), vehicle: saline with Tween-80
[6] = dose: 75.0 mg/kg/injection, schedule: Q04DX004 (sc), vehicle: Klucel (hydroxypropylcellulose) (HPC)
[7] = dose: 150.0 mg/kg/injection, schedule: Q04DX004 (sc), vehicle: Klucel (hydroxypropylcellulose) (HPC)
[8] = dose: 300.0 mg/kg/injection, schedule: Q04DX004 (sc), vehicle: Klucel (hydroxypropylcellulose) (HPC)
[9] = dose: 600.0 mg/kg/injection, schedule: Q04DX004 (sc), vehicle: Klucel (hydroxypropylcellulose) (HPC)

SMILES: Cc1c(N)nc([C@H](CC(N)=O)NC[C@H](N)C(N)=O)nc1C(=O)N[C@H](C(=O)N[C@H](C)[C@@H](O)[C@H](C)C(=O)N[C@H](C(=O)NCCc1nc(-c2nc(C(=O)NCCC[S+](C)C)cs2)cs1)[C@@H](C)O)C(OC1OC(CO)C(O)C(O)C1OC1OC(CO)C(O)C(OC(N)=O)C1O)c1cnc[nH]1 (some centres undefined)
- T/C [1]: 59 % of control
- T/C (dose: 6.25 mg/kg/injection, schedule: Q04DX004 (sc), vehicle: saline): 116 % of control
- T/C [2]: 59 % of control
- T/C (dose: 8.0 mg/kg/injection, schedule: Q04DX004 (sc), vehicle: saline): 111 % of control
- T/C (dose: 16.0 mg/kg/injection, schedule: Q04DX004 (sc), vehicle: saline): 114 % of control
- T/C (dose: 25.0 mg/kg/injection, schedule: Q04DX004 (sc), vehicle: saline): 160 % of control
- T/C (dose: 32.0 mg/kg/injection, schedule: Q04DX004 (sc), vehicle: saline): 43 % of control
- T/C (dose: 50.0 mg/kg/injection, schedule: Q04DX004 (sc), vehicle: saline): 113 % of control
- T/C (dose: 64.0 mg/kg/injection, schedule: Q01DX010 (sc), vehicle: saline): 42 % of control

SMILES: NC(=S)c1ncn(C2OC(CO)C(O)C2O)c1N (centres undefined)
- T/C (dose: 150.0 mg/kg/injection, schedule: Q04DX004 (sc), vehicle: suspension in saline): 95 % of control
- T/C (dose: 300.0 mg/kg/injection, schedule: Q04DX004 (sc), vehicle: suspension in saline): 120 % of control
- T/C (dose: 600.0 mg/kg/injection, schedule: Q04DX004 (sc), vehicle: suspension in saline): 102 % of control
- T/C (dose: 1200.0 mg/kg/injection, schedule: Q04DX004 (sc), vehicle: suspension in saline): 66 % of control

SMILES: O=C(Nc1cccc(Cl)c1)ON1C(=O)C2C(C1=O)C1(Cl)C(Cl)C(Cl)C2(Cl)C1(Cl)Cl (centres undefined)
- T/C [3]: 90 % of control
- T/C [4]: 169 % of control
- T/C [5]: 89 % of control

SMILES: S=C(Nc1ccc(Cl)c(Cl)c1)N1c2ccccc2-n2cccc2C1c1cccnc1 (centres undefined)
- T/C (dose: 200.0 mg/kg/injection, schedule: Q04DX004 (sc), vehicle: Klucel (hydroxypropylcellulose) (HPC)): 52 % of control
- T/C (dose: 400.0 mg/kg/injection, schedule: Q04DX004 (sc), vehicle: Klucel (hydroxypropylcellulose) (HPC)): 114 % of control
- T/C (dose: 800.0 mg/kg/injection, schedule: Q04DX004 (sc), vehicle: Klucel (hydroxypropylcellulose) (HPC)): 83 % of control

SMILES: CCC1=C[C@H]2CN(CCc3c([nH]c4ccccc34)[C@@](C(=O)OC)(c3cc4c(cc3OC)N(C)[C@H]3[C@@](O)(C(=O)NC)[C@H](OC(C)=O)[C@]5(CC)C=CCN6CC[C@]43[C@@H]65)C2)C1
- T/C (dose: 1.0 mg/kg/injection, schedule: Q04DX004 (sc), vehicle: water): 106 % of control
- T/C (dose: 2.0 mg/kg/injection, schedule: Q04DX004 (sc), vehicle: water): 28 % of control
- T/C (dose: 4.0 mg/kg/injection, schedule: Q04DX004 (sc), vehicle: water): -20 % of control

SMILES: O=c1n[n+]([O-])ccn1C1OC(CO)C(O)C1O (centres undefined)
- T/C (dose: 250.0 mg/kg/injection, schedule: Q04DX004 (sc), vehicle: suspension in saline): 31 % of control
- T/C (dose: 500.0 mg/kg/injection, schedule: Q04DX004 (sc), vehicle: suspension in saline): 25 % of control
- T/C (dose: 1000.0 mg/kg/injection, schedule: Q04DX004 (sc), vehicle: suspension in saline): 27 % of control

SMILES: O=S(=O)(O)O
- T/C [6]: 86 % of control
- T/C [7]: 116 % of control
- T/C [8]: 65 % of control

SMILES: CCCCCCCCCCCCCCCCCC(=O)Nc1ccn(C2OC(CO)C(O)C2O)c(=O)n1 (centres undefined)
- T/C [3]: 49 % of control and 61 % of control
- T/C (dose: 300.0 mg/kg/injection, schedule: Q04DX004 (sc), vehicle: saline with Tween-80): 67 % of control and 89 % of control
- T/C [5]: 14 % of control and 32 % of control

SMILES: Nc1nc(=O)n(C2OC(CO)C(O)C2O)cc1F (centres undefined)
- T/C (dose: 150.0 mg/kg/injection, schedule: Q04DX004 (ip), vehicle: saline): 122 % of control
- T/C (dose: 300.0 mg/kg/injection, schedule: Q04DX004 (ip), vehicle: saline): 56 % of control
- T/C (dose: 600.0 mg/kg/injection, schedule: Q04DX004 (ip), vehicle: saline): 83 % of control
- T/C (dose: 600.0 mg/kg/injection, schedule: Q04DX004 (sc), vehicle: saline): 26 % of control
- T/C (dose: 1200.0 mg/kg/injection, schedule: Q04DX004 (ip), vehicle: saline): 42 % of control
- T/C (dose: 1200.0 mg/kg/injection, schedule: Q04DX004 (sc), vehicle: saline): 11 % of control

SMILES: O=P1(N(CCCl)CCCl)NCCCO1 (centres undefined)
- T/C (dose: 40.0 mg/kg/injection, schedule: Q04DX004 (ip), vehicle: saline): 75 % of control
- T/C (dose: 50.0 mg/kg/injection, schedule: Q01DX010 (sc), vehicle: saline): 58 % of control
- T/C (dose: 60.0 mg/kg/injection, schedule: Q04DX004 (ip), vehicle: saline): 53 % of control
- T/C (dose: 90.0 mg/kg/injection, schedule: Q04DX004 (ip), vehicle: saline): 26 % of control

SMILES: O=c1s[se]c2ccccc12
- T/C [6]: 108 % of control
- T/C [7]: 48 % of control
- T/C [9]: 74 % of control

SMILES: COC(=O)Nc1cn2cc(C(=O)c3cccs3)ccc2n1
- T/C [6]: 91 % of control
- T/C [7]: 65 % of control
- T/C [8]: 50 % of control
- T/C [9]: 54 % of control and 76 % of control
- T/C (dose: 1200.0 mg/kg/injection, schedule: Q04DX004 (sc), vehicle: Klucel (hydroxypropylcellulose) (HPC)): 67 % of control
- T/C (dose: 2400.0 mg/kg/injection, schedule: Q04DX004 (sc), vehicle: Klucel (hydroxypropylcellulose) (HPC)): 36 % of control

SMILES: CC1(C)OC1CS(=O)c1ccccc1 (centres undefined)
- T/C (dose: 200.0 mg/kg/injection, schedule: Q04DX004 (sc), vehicle: saline with Tween-80): 61 % of control
- T/C (dose: 400.0 mg/kg/injection, schedule: Q04DX004 (sc), vehicle: saline with Tween-80): 117 % of control
- T/C (dose: 800.0 mg/kg/injection, schedule: Q04DX004 (sc), vehicle: saline with Tween-80): 94 % of control

SMILES: N[C@H](C(=O)O)[C@@H]1CC(Cl)=NO1
- T/C [1]: 21 % of control
- T/C [2]: 35 % of control

SMILES: CCN(CC)CCNc1ccc(C)c2sc3ccc(O)cc3c(=O)c12
- T/C (dose: 75.0 mg/kg/injection, schedule: Q04DX004 (sc), vehicle: saline with Tween-80): 53 % of control
- T/C [3]: 74 % of control
- T/C [4]: 103 % of control
- T/C [5]: 41 % of control
- T/C (dose: 2400.0 mg/kg/injection, schedule: Q04DX004 (sc), vehicle: saline with Tween-80): 58 % of control

SMILES: COc1cc2cc(c1Cl)N(C)C(=O)C[C@H](OC(=O)[C@H](C)N(C)C(C)=O)[C@]1(C)O[C@H]1[C@H](C)[C@@H]1C[C@@](O)(NC(=O)O1)[C@H](OC)C=C/C=C(\C)C2
- T/C (dose: 50.0 micrograms/kg/injection, schedule: Q01DX010 (sc), vehicle: Klucel (hydroxypropylcellulose) (HPC)): 40 % of control
- T/C (dose: 100.0 micrograms/kg/injection, schedule: Q01DX010 (sc), vehicle: Klucel (hydroxypropylcellulose) (HPC)): 93 % of control
- T/C (dose: 200.0 micrograms/kg/injection, schedule: Q01DX010 (sc), vehicle: Klucel (hydroxypropylcellulose) (HPC)): 24 % of control

SMILES: CC[C@](O)(C(=O)O)c1cc2n(c(=O)c1CO)Cc1cc3ccccc3nc1-2
- T/C (dose: 31.25 mg/kg/injection, schedule: Q04DX004 (sc), vehicle: saline): 7 % of control
- T/C (dose: 62.5 mg/kg/injection, schedule: Q04DX004 (sc), vehicle: saline): -10 % of control
- T/C (dose: 125.0 mg/kg/injection, schedule: Q04DX004 (sc), vehicle: saline): -46 % of control

SMILES: N=[N+]=CC(=O)OCC(N)C(=O)O (centres undefined)
- T/C (dose: 3.13 mg/kg/injection, schedule: Q01DX010 (sc), vehicle: saline): 212 % of control
- T/C (dose: 6.25 mg/kg/injection, schedule: Q01DX010 (sc), vehicle: saline): 87 % of control
- T/C (dose: 12.5 mg/kg/injection, schedule: Q01DX010 (sc), vehicle: saline): 85 % of control
- T/C (dose: 25.0 mg/kg/injection, schedule: Q01DX010 (sc), vehicle: saline): 123 % of control

SMILES: CC[PH+](CC)CC[S-].CC[PH+](CC)CC[S-].[Au+].[Au+]
- T/C (dose: 160.0 mg/kg/injection, schedule: Q04DX004 (sc), vehicle: Klucel (hydroxypropylcellulose) (HPC)): 152 % of control

SMILES: C=CCNc1ccc(C)cc1
- T/C (dose: 50.0 mg/kg/injection, schedule: Q01DX010 (sc), vehicle: Klucel (hydroxypropylcellulose) (HPC)): 105 % of control
- T/C (dose: 200.0 mg/kg/injection, schedule: Q01DX010 (sc), vehicle: Klucel (hydroxypropylcellulose) (HPC)): 86 % of control

SMILES: Nc1ncn(C2CC(O)C(CO)O2)c(=O)n1 (centres undefined)
- T/C (dose: 0.2 mg/kg/injection, schedule: Q01DX010 (sc), vehicle: saline): 84 % of control
